Here are results for 27 molecules from patent US11753418B2, “Compounds for the modulation of Myc activity” (Syros Pharmaceuticals, Inc., priority 2015, dated 2023).

Where a name gives a salt, the structure may show the parent alone.

For experiment [1], the system named is human small lung cancer cell line H2171. The experiment in a line: Cell Viability Assay (ATPlite). The class given is cell-based. The settings on record: NCI-H2171, 72 h, H2171 cells, incubated for three days, ATPlite readout. The method, then:
Compounds of the invention were assayed for cell viability using the human small lung cancer cell line H2171 as described in the following protocol. Cells were counted and adjusted to 20,000 cells/mL. Using a Biotek EL406, 50 μL of cells in media were distributed into 384 well white plates from Thermo. Immediately after plating, compound in DMSO was distributed to plates. Compounds were added to plates using a 50 nL 384 well pin transfer manifold on a Janus workstation. Stocks were arrayed in 10 point dose response in DMSO stock in 384 well Greiner compound plates. After the addition of compounds, plates were incubated for three days in a 37° C. incubator. Cell viability was read out using ATPlite from Perkin Elmer. Lyophilized powder was resuspended in lysis buffer and diluted 1:2 with deionized water. 25 μL of this solution was added to each well using the Biotek liquid handler. Plates were incubated for 15 minutes at room temperature before signal was read on an Envision Plate Reader. The data from this assay are summarized in Table 3 below (H2171 activity).

The target of experiment [2] is T1, c-Myc/Max/Ebox DNA (Homo sapiens, UniProt P01106).
T1 construct: his6 (cleaved yes)
The experiment in a line: c-Myc/Max/Ebox DNA AlphaScreen Assay. To be noted: free c-Myc 20 nM, his6-Max 5 nM, biotinylated Ebox oligo 10 nM, 2 hour incubation. The class given is binding. On the procedure: Compounds of the invention were assayed for c-Myc/Max/EBox activity as described in the following protocol. Human his6-c-Myc and his6-Max were used with biotinylated DNA containing a single Ebox sequence (biotin[…]) purchased from MWG Operon. Free c-Myc was generated from his6-c-Myc through thrombin cleavage of the his6 tag. For 384-well plate assays, 10 μL of a 2× solution of free c-Myc (20 nM final), Ni^2+ coated Acceptor Beads (25 μg/ml final), and biotinylated Ebox oligo (10 nM final) were added to 384-well plates with a Biotek EL406 liquid handler. 50 nL of compounds from stock plates were added by pin transfer using a Janus Workstation (PerkinElmer), allowing the compounds to interact with c-Myc prior to c-Myc binding with Max. In the current assay, DMSO was not allowed to exceed 2% v/v of the assay. 10 μl of 2× master mix containing streptavidin-coated donor beads (25 μg/ml final) and his6-Max (5 nM) were added. AlphaScreen measurements were performed on an Envision plate reader (PerkinElmer) utilizing the manufacturer's protocol.
Both master mixes were made in room temperature assay buffer (50 mM HEPES, 150 mM NaCl, 0.2% w/v BSA, 0.02% w/v Tween20, 40 μg/ml glycogen, 500 μM DTT, pH 8.0, wherein both DTT and glycogen were added fresh). Alpha beads were added to respective master solutions. All subsequent steps were performed in low light conditions. Solution 1: 2× solution of components with final concentrations of c-Myc Ni-coated Acceptor Beads (25 μg/ml), and biotinylated Ebox oligo (10 nM). Solution 2: 2× solution of streptavidin-coated donor beads (25 μg/ml final) and his6-Max […]. Solution 1 was added to 384-well plate (AlphaPlate-384, PerkinElmer) with Biotek EL406 liquid handler and the plates were centrifuged very briefly. 50 nL of compounds from stock plates were added by pin transfer using a Janus Workstation. Solution 2 (10 μL) was added with the liquid handler. Plates were sealed with foil to block light exposure and prevent evaporation. Plates were very briefly centrifuged followed by 2 hour incubation. AlphaScreen measurements were performed on an Envision 2104 utilizing the manufacturer's protocol. Excitation was at 680 nm for donor bead release of singlet oxygen and emission was read with a bandpass filter from 520-620 nm. Glycogen: Roche Diagnostics #10901393001. Plate 1536: Perkin Elmer, 6004350. Plate 384: Perkin Elmer, 6005350. Nickel-His Alpha Beads: 6760619R. The data from this assay are summarized in Table 3 below (Myc/Max/DNA Activity).
(In general: In Alpha technology, singlet oxygen from a donor bead excites a nearby acceptor bead.)

T1 sequence (P01106 whole entry): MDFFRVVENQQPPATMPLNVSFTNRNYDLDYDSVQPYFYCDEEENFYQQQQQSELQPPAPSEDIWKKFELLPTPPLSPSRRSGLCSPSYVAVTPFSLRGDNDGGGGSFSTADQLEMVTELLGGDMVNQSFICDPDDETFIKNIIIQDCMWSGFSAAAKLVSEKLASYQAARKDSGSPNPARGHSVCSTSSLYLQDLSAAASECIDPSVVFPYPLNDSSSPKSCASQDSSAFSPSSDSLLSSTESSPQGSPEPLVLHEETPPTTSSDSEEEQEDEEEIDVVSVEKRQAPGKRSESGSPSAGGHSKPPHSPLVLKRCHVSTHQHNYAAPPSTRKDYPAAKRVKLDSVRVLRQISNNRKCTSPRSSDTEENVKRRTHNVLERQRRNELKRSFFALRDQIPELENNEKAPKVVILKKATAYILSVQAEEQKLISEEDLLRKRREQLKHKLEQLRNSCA

Consider `CCN1C(C)c2sc(NC(C)=O)c(-c3nc4c(C(F)F)nccc4s3)c2C[C@H]1C` (stereo in doubt) [Compound 235, N-((5R,7R)-3-(4-(difluoromethyl)thiazolo[4,5-c]pyridin-2-yl)-6-ethyl-5,7-dimethyl-4,5,6,7-tetrahydrothieno[2,3-c]pyridin-2-yl)acetamide], for which the IC50 in experiment [1] and in experiment [2] was less than 500 nM in each case.
For `CC(=O)Nc1sc2c(c1-c1nc3cnccc3s1)CCNC2` [Compound 100, N-(3-(Thiazolo[4,5-c]pyridin-2-yl)-4,5,6,7-tetrahydrothieno[2,3-c]pyridin-2-yl)acetamide], the IC50 in experiment [1] is 500 to 5000 nM; in experiment [2], less than 500 nM.
For the molecule `CC(=O)Nc1sc2c(c1-c1nc3cccnc3s1)CCNC2` [Compound 101, N-(3-(thiazolo[5,4-b]pyridin-2-yl)-4,5,6,7-tetrahydrothieno[2,3-c]pyridin-2-yl)acetamide], the results for the IC50 in experiment [1] and in experiment [2] were less than 500 nM and 500 to 5000 nM, respectively.
For `CCC(C)NCCC(=O)Nc1sc2c(c1-c1nc3cnccc3s1)CCNC2` (stereo not drawn) [Compound 103, 3-(sec-butylamino)-N-(3-(thiazolo[4,5-c]pyridin-2-yl)-4,5,6,7-tetrahydrothieno[2,3-c]pyridin-2-yl)propanamide], the IC50 in experiment [1] and in experiment [2] was less than 500 nM in each case.
Take `CC(=O)Nc1sc2c(c1-c1nc3cnccc3s1)CCN(C(C)CN1CCOCC1)C2` (stereo not drawn) [Compound 105, N-(6-(1-morpholinopropan-2-yl)-3-(thiazolo[4,5-c]pyridin-2-yl)-4,5,6,7-tetrahydrothieno[2,3-c]pyridin-2-yl)acetamide]: the 50% inhibitory concentration (IC50) in experiment [1] and in experiment [2] was 500 to 5000 nM each time.
On to `CC(=O)Nc1sc2c(c1-c1nc3c(C(F)F)nccc3s1)CCNC2` [Compound 106, N-[3-[4-(difluoromethyl)thiazolo[4,5-c]pyridin-2-yl]-4,5,6,7-tetrahydrothieno[2,3-c]pyridin-2-yl]acetamide], for which the IC50 in experiment [1] and in experiment [2] was less than 500 nM in each case.
Turning to `CC(=O)Nc1sc2c(c1-c1nc3cnccc3s1)C(C)CN(C(C)C)C2` (stereo not drawn) [Compound 107, N-(6-isopropyl-4-methyl-3-(thiazolo[4,5-c]pyridin-2-yl)-4,5,6,7-tetrahydrothieno[2,3-c]pyridin-2-yl)acetamide], the IC50 in experiment [1] and in experiment [2] was 500 to 5000 nM throughout.
For `CC(=O)Nc1sc2c(c1-c1nc3c[n+]([O-])ccc3s1)CCNC2` [Compound 108, 2-(2-acetamido-4,5,6,7-tetrahydrothieno[2,3-c]pyridin-3-yl)thiazolo[4,5-c]pyridine 5-oxide], the IC50 in experiment [1] and in experiment [2] was 500 to 5000 nM in each case.
For the molecule `CC(=O)Nc1sc2c(c1-c1nc3cnccc3s1)CCC(N)C2` (stereo not drawn) [Compound 113, N-(6-amino-3-(thiazolo[4,5-c]pyridin-2-yl)-4,5,6,7-tetrahydrobenzo[b]thiophen-2-yl)acetamide], the IC50 in experiment [1] was less than 500 nM; in experiment [2] it was 500 to 5000 nM.
For `CC(=O)Nc1sc2c(c1-c1nc3cnccc3s1)CCN(C)C2` [Compound 114, N-(6-methyl-3-(thiazolo[4,5-c]pyridin-2-yl)-4,5,6,7-tetrahydrothieno[2,3-c]pyridin-2-yl)acetamide] the same measures were 500 to 5000 nM and 500 to 5000 nM.
As to `CCC(C)NCCC(=O)Nc1sc2c(c1-c1nc3cnccc3s1)CCN(C(C)C)C2` (stereo not drawn) [Compound 116, 3-(sec-butylamino)-N-(6-isopropyl-3-(thiazolo[4,5-c]pyridin-2-yl)-4,5,6,7-tetrahydrothieno[2,3-c]pyridin-2-yl)propanamide dihydrochloride], the IC50 in experiment [1] and in experiment [2] was less than 500 nM throughout.
Regarding `CCN1C(C)Cc2c(sc(NC(C)=O)c2-c2nc3cnccc3s2)C1C` (stereo not drawn) [Compound 117, N-(6-ethyl-5,7-dimethyl-3-(thiazolo[4,5-c]pyridin-2-yl)-4,5,6,7-tetrahydrothieno[2,3-c]pyridin-2-yl)acetamide], the IC50 in experiment [1] and in experiment [2] was 500 to 5000 nM each time.
As for `CC(=O)Nc1sc2c(c1-c1nc3c(C)nccc3s1)CCNC2` [Compound 118, N-(3-(4-methylthiazolo[4,5-c]pyridin-2-yl)-4,5,6,7-tetrahydrothieno[2,3-c]pyridin-2-yl)acetamide], the IC50 in experiment [1] and in experiment [2] was less than 500 nM in each case.
In the case of `CCN1[C@H](C)Cc2c(sc(NC(C)=O)c2-c2nc3cnccc3s2)[C@H]1C` [Compound 119, N-((5R,7R)-6-ethyl-5,7-dimethyl-3-(thiazolo[4,5-c]pyridin-2-yl)-4,5,6,7-tetrahydrothieno[2,3-c]pyridin-2-yl)acetamide], the IC50 in experiment [1] and in experiment [2] was less than 500 nM each time.
With `CC[C@H](C)NCCC(=O)Nc1sc2c(c1-c1nc3cnccc3s1)CCNC2` [Compound 122, (S)-3-(sec-butylamino)-N-(3-(thiazolo[4,5-c]pyridin-2-yl)-4,5,6,7-tetrahydrothieno[2,3-c]pyridin-2-yl)propanamide], the half-maximal inhibitory concentration (IC50) in experiment [1] and in experiment [2] was less than 500 nM in each case.
As for `COCC(NCCC(=O)Nc1sc2c(c1-c1nc3cnccc3s1)CCNC2)C(C)C` (stereo not drawn) [Compound 134], the IC50 in experiment [1] was 500 to 5000 nM; in experiment [2], less than 500 nM.
For `O=C(CCN[C@@H]1C[C@H]2CNC[C@H]2C1)Nc1sc2c(c1-c1nc3cnccc3s1)CCNC2` [Compound 153] the same measures were less than 500 nM and less than 500 nM.
For `O=C(CCN1CC(C(=O)O)C1)Nc1sc2c(c1-c1nc3cnccc3s1)CCNC2` [Compound 172] the same measures were less than 500 nM and less than 500 nM.
`O=C(CCN[C@H]1CC[C@H](O)C1)Nc1sc2c(c1-c1nc3cnccc3s1)CCNC2` [Compound 176]: the IC50 in experiment [1] and in experiment [2] was less than 500 nM each time.
Take `O=C(CCN[C@H]1CC[C@]2(CCC(=O)N2)CC1)Nc1sc2c(c1-c1nc3cnccc3s1)CCNC2` [Compound 177]: the IC50 in experiment [1] and in experiment [2] was less than 500 nM each time.
Take `O=C(CCN1CCCCC12CNC2)Nc1sc2c(c1-c1nc3cnccc3s1)CCNC2` [Compound 183]: the IC50 in experiment [1] is less than 500 nM; in experiment [2] it was 500 to 5000 nM.
For `CN(CCCn1ccnc1)CCC(=O)Nc1sc2c(c1-c1nc3cnccc3s1)CCNC2` [Compound 190], in that order: less than 500 nM and less than 500 nM.
For the molecule `Cn1cncc1CNCCC(=O)Nc1sc2c(c1-c1nc3cnccc3s1)CCNC2` [Compound 203], the figures for the IC50 in experiment [1] and in experiment [2] were 500 to 5000 nM and less than 500 nM, respectively.
`O=C(CCN1CCCC12CNC2)Nc1sc2c(c1-c1nc3cnccc3s1)CCNC2` [Compound 206]: the IC50 is 500 to 5000 nM in experiment [1] and less than 500 nM in experiment [2].
For `COCCNCCC(=O)Nc1sc2c(c1-c1nc3cnccc3s1)CCNC2` [Compound 216, 3-((2-methoxyethyl)amino)-N-(3-(thiazolo[4,5-c]pyridin-2-yl)-4,5,6,7-tetrahydrothieno[2,3-c]pyridin-2-yl)propanamide] the same measures were less than 500 nM and less than 500 nM.
For `CC[C@@H](C)NCCC(=O)Nc1sc2c(c1-c1nc3cnccc3s1)CCNC2` [Compound 217, (R)-3-(sec-butylamino)-N-(3-(thiazolo[4,5-c]pyridin-2-yl)-4,5,6,7-tetrahydrothieno[2,3-c]pyridin-2-yl)propanamide] the same measures were less than 500 nM and less than 500 nM.
On to `O=C(CCNCCc1cccnc1)Nc1sc2c(c1-c1nc3cnccc3s1)CCNC2` [Compound 218, 3-((2-(pyridin-3-yl)ethyl)amino)-N-(3-(thiazolo[4,5-c]pyridin-2-yl)-4,5,6,7-tetrahydrothieno[2,3-c]pyridin-2-yl)propanamide], for which the IC50 in experiment [1] and in experiment [2] was less than 500 nM each time.

One may read the IC50 as the point on the concentration scale where inhibition reaches its midpoint. A low value points to inhibition by little substance.
